This is an account of results in EP4640207A1, “AQUEOUS COMPOSITION AND EXTERNAL PREPARATION FOR SKIN” (Resonac Corporation, priority 2022, dated 2024).

One data set deals with TRPV4 gene. The data set is described as follows: cells. The format is cell-based, human. The conditions noted are these: for fold induction at 10 µM: Homo sapiens, NHEK, light or radiation study, read-out: Expression level of TRPV4 gene (relative value); for Expression level of TRPV4 gene (relative value): nhek cells, 10 µM. On the procedure:
• (Confirmation of activity of aqueous composition containing δ-TPG and HD: expression of TRPV4 gene) • Normal human epidermal keratinocytes (NHEK, manufactured by KURABO INDUSTRIES LTD.) were seeded in a plastic petri dish at a seeding density of 10,000 cells/cm^2, and cultured for 24 hours in a normal human epidermal keratinocyte serum-free culture medium (manufactured by KURABO INDUSTRIES LTD.).
8.94 g of water, 1.0 g of HD, and 0.06 g of δ-TPG were mixed and stirred to obtain an aqueous composition. The above-described aqueous composition was added to a culture solution in which the above-described NHEK cells had been cultured for 24 hours, such that the final concentration of δ-TPG was 10 µM.
After adding the δ-TPG, the above-described culture solution was further cultured for 48 hours. Thereafter, the culture solution was irradiated with UVB at 60 mJ/cm^2 using a UVB irradiation device of UVP, LLC. Thereafter, a fresh normal human epidermal keratinocyte growth medium was added to the above-described culture solution, and the culture was further carried out for 24 hours. In this manner, evaluation cells were obtained.
Total RNA was extracted from the evaluation cells obtained above, and cDNA was synthesized. Subsequently, quantitative real-time PCR was carried out using the above-described cDNA as a template, and the expression level of the TRPV4 gene in the NHEK cells was quantified. The expression level of glyceraldehyde 3-phosphate dehydrogenase (GAPDH) was quantified as an internal standard gene. […] The expression level of the TRPV4 gene was standardized with reference to the expression level of the GAPDH gene in the NHEK cells. As a primer for amplifying the GAPDH gene, a primer GAPDH (ID: HA067812) manufactured by Takara Bio Inc. was used. As a primer for amplifying the TRPV4 gene, a primer TRPV4 (ID: HA186338) manufactured by Takara Bio Inc. was used.
The same operation as described above was carried out using, instead of δ-TPG, D-α-tocopheryl glucoside (hereinafter, may be abbreviated as "α-TPG"), tocopherol acetate (FUJIFILM Wako Pure Chemical Corporation; hereinafter, may be abbreviated as "TPA"), δ-tocopherol (Sigma-Aldrich Co., LLC; hereinafter, may be abbreviated as "δ-TP"), or α-tocopherol (SEIKO-EPSON CORPORATION; hereinafter, may be abbreviated as "α-TP"), thereby obtaining evaluation cells. The expression level of the TRPV4 gene was measured for these evaluation cells by the same operation as described above.
The expression level of the TRPV4 gene was determined as a relative value when the expression level of the TRPV4 gene in reference cells was set to 1. The reference cells were prepared by culturing the NHEK cells without adding a test compound to the cell culture solution and without irradiating the cells with UVB. HD was added to the cell culture solution of the reference cells so that the HD concentration in the cell culture solution was the same as that in the culture solution when δ-TPG was added and cultured. The culture conditions for the NHEK cells were the same as those when δ-TPG was added, except that δ-TPG was not added and UVB irradiation was not carried out.
Comparative cells were prepared by culturing the NHEK cells by not adding the test compound to the cell culture solution and irradiating the cells with UVB. […] The expression level of the TRPV4 gene in the comparative cells was determined by the same method as described above.

A further data set has as its system claudin 1 (CLDN1) gene. Nature of the data set: Expression of TJ-related gene CLDN1 in UVB-irradiated NHEK cells, quantitative real-time PCR. The format is cell-based, human. The conditions noted are these: for fold induction at 10 µM: Homo sapiens, light or radiation study, read-out: Expression level of gene (relative value) CLDN1 gene. On the procedure:
(§1) • (Confirmation of activity of aqueous composition with δ-TPG and HD: effect of promoting expression of TJ-related gene) • Normal human epidermal keratinocytes (NHEK, manufactured by KURABO INDUSTRIES LTD.) were subjected to the same operation as in Experimental Example 2 to obtain evaluation cells.
(§2) Total RNA was extracted from the evaluation cells thus obtained, and cDNA was synthesized. Subsequently, quantitative real-time PCR was carried out using the above-described cDNA as a template, and the expression levels of the claudin 1 (CLDN1) gene and occludin (OCL) gene in the NHEK cells were quantified. In addition, the expression level of GAPDH was quantified as an internal standard gene. The expression levels of the CLDN1 gene and OCL gene were standardized with reference to the expression level of the GAPDH gene in the NHEK cells. As a primer for amplifying the GAPDH gene, a primer GAPDH (ID: HA067812) manufactured by Takara Bio Inc. was used. As a primer for amplifying the CLDN1 gene, a primer CLDN1 (ID: HA103348) manufactured by Takara Bio Inc. was used. As a primer for amplifying the OCL gene, a primer OCL (ID: HA036753) manufactured by Takara Bio Inc. was used.
(§3) The same operation as described above was performed using, instead of δ-TPG, α-TPG, TPA, δ-TP, or α-TP to obtain evaluation cells. The expression levels of the CLDN1 gene and OCL gene were measured for these evaluation cells by the same operation as described above.
(§4) The expression level of each gene was determined as a relative value when the expression level of each gene in reference cells was set to 1. The reference cells were prepared by the same operation as the reference cells in Experimental Example 2.
(§5) The expression levels of the CLDN1 gene and OCL gene in comparative cells were determined by the same method as described above. The comparative cells were prepared by the same operation as the comparative cells in Experimental Example 2.
In general terms: Quantitative PCR measures a nucleic acid by following its amplification.

In the next data set the test system is occludin (OCL) gene. The data set is described as follows: Expression of TJ-related gene OCL in UVB-irradiated NHEK cells, quantitative real-time PCR. The format is cell-based, human. The conditions noted are these: for fold induction at 10 µM: Homo sapiens, light or radiation study, read-out: Expression level of gene (relative value) OCL gene. On the procedure:
as §1, §2, §3, §4, §5

Data set [1] concerns skin model (model "EP1-200"). The data set is described as follows: TJ-forming ability evaluation test: transepidermal water loss (TEWL) of skin model. The format is cell-based. The conditions noted are these: cultured 24 hours. The procedure:
A skin model (model "EP1-200", manufactured by KURABO INDUSTRIES LTD.) was pre-cultured for 1 hour under the conditions of 37°C and 5% CO2. Subsequently, δ-TPG dissolved in a 0.5% by mass HD aqueous solution at a concentration of 0.2% by mass was added to the surface of the skin model, and the skin model was further cultured for 24 hours. Subsequently, δ-TPG was removed, the sample was washed three times with a phosphate buffer solution, and the transepidermal water loss (TEWL) was measured. A cyclone water vaporizer (manufactured by ASCH JAPAN Co.,Ltd.) was used for measuring the TEWL.
TEWL was measured by performing the same operation as described above using TPA instead of δ-TPG.
For comparison, a 0.5% by mass HD aqueous solution not containing δ-TPG instead of δ-TPG dissolved in a 0.5% by mass HD aqueous solution was used, and the same operation as described above was performed to measure the TEWL.
The same operation as described above was performed using δ-TP dissolved in 1% by mass of HD at a concentration of 0.2% by mass, instead of δ-TPG dissolved in 0.5% by mass of HD, and the TEWL was measured.
It was confirmed that TEWL was suppressed in the group in which δ-TPG was added. […]

Data set [2] can be described thus: Confirmation of solubility of tocopheryl glucoside (visual observation of vials). The conditions noted are these: aqueous composition not containing HD.
Description: The solubility of the D-δ-tocopheryl glucoside (hereinafter, may be abbreviated as "δ-TPG") was examined.
9.9 g of each of the mixtures was placed in individual vials, 0.01 g of solid δ-TPG was added to each vial, and the mixture was stirred at room temperature. After stirring for 1 hour, the state of each vial was observed.
Where [3] appears, read: NHEK cells, final concentration 10 µM, UVB 60 mJ/cm^2 performed, relative to reference cells (HD, no UVB) = 1, standardized to GAPDH.
Where [4] appears, read: 0.2% by mass in 0.5% by mass HD aqueous solution on skin model surface.

Like-named read-outs stand apart in the source and are kept apart here.

`CC(=O)Oc1c(C)c(C)c2c(c1C)CCC(C)(CCCC(C)CCCC(C)CCCC(C)C)O2` (stereo not shown) [TPA/HD, tocopherol acetate]: the fold induction at 10 µM in the data set with TRPV4 gene amounted to 0.29; in the data set with claudin 1 (CLDN1) gene (setting [3]), 0.77; in the data set on occludin (OCL) gene (setting [3]), 1.12. The TEWL in data set [1] (setting [4]) is 12.4 ± 0.8 g/(h·m^2).
As to `Cc1c(C)c2c(c(C)c1O)CCC(C)(CCCC(C)CCCC(C)CCCC(C)C)O2` (stereo not drawn) [α-TP/HD, α-tocopherol], the fold induction at 10 µM in the data set on TRPV4 gene came out at 0.43; in the data set with claudin 1 (CLDN1) gene (NHEK) it was 1; with occludin (OCL) gene (NHEK), 2.48.
In the case of δ-tocopherol [δ-TP/HD], the “Expression level of TRPV4 gene (relative value)” value in the data set on TRPV4 gene was found to be 0.54. In the data set on claudin 1 (CLDN1) gene (nhek cells, 10 µM), the “Expression level of gene (relative value) CLDN1 gene” value is 1.00. Moreover, in the data set with occludin (OCL) gene (nhek cells, 10 µM), the “Expression level of gene (relative value) OCL gene” value came to 1.91. Also, the TEWL in data set [1] (0.2% by mass in 1% by mass of HD on skin model surface) is on record as 8.2 ± 1.2 g/(h·m^2).
As to `Cc1cc(OC2OC(CO)C(O)C(O)C2O)cc2c1OC(C)(CCCC(C)CCCC(C)CCCC(C)C)CC2` [δ-TPG, D-δ-tocopheryl glucoside], the figures for the fold induction at 10 µM in the data set with TRPV4 gene, in the data set with claudin 1 (CLDN1) gene (setting [3]) and in the data set on occludin (OCL) gene (setting [3]) were 0.83, 1.28 and 3.45, respectively. In addition, the TEWL in data set [1] (setting [4]) was 7.9 ± 1.7 g/(h·m^2).
Regarding tocopheryl glucoside, the “solubility of tocopheryl glucoside” value in data set [2] is “not sufficiently dissolved”.
Consider D-α-tocopheryl glucoside [α-TPG/HD], for which, in the data set on TRPV4 gene, the “Expression level of TRPV4 gene (relative value)” value is recorded as 0.77. In addition, in the data set on claudin 1 (CLDN1) gene (setting [3]), the “Expression level of gene (relative value) CLDN1 gene” value is listed as 1.24. The “Expression level of gene (relative value) OCL gene” value in the data set with occludin (OCL) gene (setting [3]) stood at 3.24.
